Data taken from patent publication US10766882B2, “1,2-naphthoquinone based derivative and method of preparing the same” (YUNGJIN PHARM. CO., LTD., priority 2013, dated 2020).

Legend:
NQO1 protein = NQO1 protein (Homo sapiens, UniProt P15559); assay: NQO1 activity measurement (cytochrome C reduction); assay type: biochemical; conditions: 5 ng NQO1 protein, 200 μM NADH, 77 μM cytochrome C, 37° C., absorbance 550 nm for 10 minutes
Description: An enzyme reaction solution included 25 mM Tris/HCl (pH 7.4), 0.14% bovine serum albumin, 200 μM NADH, 77 μM cytochrome C, and 5 ng of NQO1 protein. Enzymatic reaction was initiated by adding NADH and performed at 37° C. In this regard, a reaction rate was measured by observing absorbance, which was increased due to reduction of cytochrome C, at 550 nm for 10 minutes and NQO1 activity was represented as an amount of reduced cytochrome C [nmol cytochrome C reduced/min/μg protein].
Extinction coefficient for cytochrome C:21.1 mmol/L/cm=21.1 μmol/ml/cm

Cells = assay: Measurement of lactate change amount within cells; assay type: cell-based; conditions: PCA extract of cells, lactate measured from supernatant (Megazyme, K-LATE)
Description: Cells were treated with 400 μl of 6% PCA, and then collected and extracted. Centrifugation (13,000 rpm, 10 min) was performed. A precipitate was dried using a Speed-Vac and then a weight of dried precipitate was measured. A supernatant was neutralized using 400 μl of 1 M KOH and a final volume thereof was adjusted to 1 ml using 0.33 M KH2PO4/K2HPO4, pH 7.5. Centrifugation (13,000 rpm, 10 min) was performed and the amount of lactate was measured from a supernatant (Megazyme, K-LATE).

C57BL/6J Lep ob/ob mice = assay: Weight loss effects in obese mice (ob/ob); assay type: in vivo; conditions: Exp. Ex. 3-3, FIG. 3: 11 week-old ob/ob mice, 100 mg/kg oral, total of 6 days, vs 0.1% SLS controls
Description: 10 week-old C57BL/6J Lep ob/ob mice having genetic obesity characteristics available from ORIENTBIO were prepared. Two mice were raised in each polycarbonate breeding cage (200 W×260 L×130H (mm), Three-shine) in which temperature was 20 to 24° C., relative humidity was 35 to 65%, illuminance was 150 to 300 lux, night and day were 12 hours, and exhaust was performed at 10 to 15 air changes per hour. As a feed, low fat diet (11.9 kcal % fat, 5053, Labdiet) manufactured by ORIENTBIO was used. The feed was contained in a feeder and free intake was allowed. As drinking water, water, which was contained in a 250 mL polycarbonate based bottle, purified through a filter and a sterilizer was used and free intake was allowed.
The compound according to Example 1 synthesized in the present invention was orally administered to three C57BL/6J Lep ob/ob mice in amounts of 40 mg/kg, 80 mg/kg, and 120 mg/kg, respectively, once every day for two weeks. For administration, a disposable syringe fitted with a sonde for oral administration was used and 10 ml/kg of the compound was orally administered into the stomach. As controls, three C57BL/6J Lep ob/ob mice were administered 0.1% sodium lauryl sulfate (SLS) in an amount of 120 mg/kg in the same manner as described above. After administration, a time-dependent weight increase ratio, weight change, and intake amount were measured and results are illustrated in FIG. 1 below.
Weights of the experimental animals were measured immediately before administration of a test material and seven times a week from an administration initiation day to a test termination day. Increased total weights were calculated by subtracting weights measured on an experiment initiation day from weights measured one day before an experiment termination day. Food intake amounts were calculated by measuring feed supply amounts and remaining amounts twice a week from an initiation day of test material administration to a test termination day for each individual. […]
(§1) Experiments were performed under the same conditions as in Experimental Example 3-1 except that 15 week-old C57BL/6J Lep ob/ob mice having genetic obesity characteristics available from ORIENTBIO were prepared, the compounds according to Examples 5 and 6 were administered to three C57BL/6J Lep ob/ob mice in an amount of 150 mg/kg, 150 mg/kg of 0.1% SLS was administered to each of three C57BL/6J Lep ob/ob mice as controls, and experiments were performed for a total of one week. Weight increase ratios, weight change, and intake amounts depending on administration time were measured and results are illustrated in FIG. 5 below.
as §1, with “that 10” for “that 15”, “Examples 8, 9,” for “Examples 5”, “and 12” for “and 6”, “FIG. 6” for “FIG. 5”
Experiments were performed under the same conditions as in Experimental Example 3-1 except that 6 week-old C57BL/6J Lep ob/ob mice having genetic obesity characteristics available from ORIENTBIO were prepared, the compounds according to Examples 17, 18, 22, and 23 were administered to three C57BL/6J Lep ob/ob mice in an amount of 100 mg/kg, 100 mg/kg of 0.1% SLS was administered to each of three C57BL/6J Lep ob/ob mice as controls, and experiments were performed for a total of one week. Weight increase ratios, weight change, and intake amounts depending on administration time were measured and results are illustrated in FIG. 10 below. […]

NQO1 protein, sequence (P15559 whole entry, species assumed): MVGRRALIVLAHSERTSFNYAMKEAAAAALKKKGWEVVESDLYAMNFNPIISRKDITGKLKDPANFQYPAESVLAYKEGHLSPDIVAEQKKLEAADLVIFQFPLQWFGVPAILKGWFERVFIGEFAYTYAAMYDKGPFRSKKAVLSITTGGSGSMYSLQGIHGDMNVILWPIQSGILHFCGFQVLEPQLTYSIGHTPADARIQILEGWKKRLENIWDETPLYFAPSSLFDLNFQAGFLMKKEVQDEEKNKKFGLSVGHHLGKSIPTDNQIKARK

Compound | NQO1 activity (5 μM, [nmol cytochrome C reduced/min/μg protein]) (NQO1 protein) | Lactate change amount within cells (nmol/mg cell) (Cells) | intake amount (C57BL/6J Lep ob/ob mice) | weight increase ratio (C57BL/6J Lep ob/ob mice)
CC(C)c1nc2c(n1Cc1ccccc1)-c1ccccc1C(=O)C2=O [Example 2, 1-benzyl-2-isopropyl-1H-naphtho[2,1-d]imidazole-4,5-dione] | 143 nmol cytochrome C reduced/min/μg protein | 7.3 |  | 
CC(C)(C)c1nc2c([nH]1)C(=O)C(=O)c1ncccc1-2 [Example 7, 2-tert-butyl-3H-imidazo[4,5-f]quinoline-4,5-dione] | 55 nmol cytochrome C reduced/min/μg protein | 11.4 |  | 
COc1ccc(-c2nc3c([nH]2)C(=O)C(=O)c2ccccc2-3)cc1 [Example 10] | 103 nmol cytochrome C reduced/min/μg protein | 9.9 |  | 
O=C1C(=O)c2[nH]c(Cc3ccccc3)nc2-c2ccccc21 [Example 11] | 178 nmol cytochrome C reduced/min/μg protein | 7.2 |  | 
O=C1C(=O)c2nccnc2-c2ccccc21 [Example 13] | 291 nmol cytochrome C reduced/min/μg protein |  | significantly decreased | significantly decreased
Cn1c(C(C)(C)C)nc2c1-c1cccnc1C(=O)C2=O [Example 14] | 179 nmol cytochrome C reduced/min/μg protein | 12.4 |  | 
CC(C)(C)Cc1nc2c([nH]1)C(=O)C(=O)c1ccccc1-2 [Example 15, 2-neopentyl-1H-naphtho[2,1-d]imidazole-4,5-dione] | 183.3 nmol cytochrome C reduced/min/μg protein | 7.2 |  | 
CC(C)c1nc2c([nH]1)C(=O)C(=O)c1cc([N+](=O)[O-])ccc1-2 [Example 16] | 94.0 nmol cytochrome C reduced/min/μg protein | 5.8 |  | 
CC(=O)Nc1ccc2c(c1)C(=O)C(=O)c1[nH]c(C(C)C)nc1-2 [Example 19] | 24.6 nmol cytochrome C reduced/min/μg protein | 6.5 |  | 
CCc1nc2c([nH]1)C(=O)C(=O)c1cc([N+](=O)[O-])ccc1-2 [Example 24] | 208.2 nmol cytochrome C reduced/min/μg protein | 4.3 |  | 
CCc1nc2c([nH]1)C(=O)C(=O)c1cc(N)ccc1-2 [Example 25] | 173.1 nmol cytochrome C reduced/min/μg protein | 6.1 |  | 
CC(C)(C)c1nc2c([nH]1)C(=O)C(=O)c1cccnc1-2 [Example 27] | 207.4 nmol cytochrome C reduced/min/μg protein | 9.6 |  | 
CC(C)C(=O)n1c(C(C)C)nc2c1C(=O)C(=O)c1ccccc1-2 [Example 28] | 177.2 nmol cytochrome C reduced/min/μg protein | 6.8 |  | 
CC(C)c1nc2c(n1C(=O)OC(C)(C)C)C(=O)C(=O)c1ccccc1-2 [Example 29] | 215.6 nmol cytochrome C reduced/min/μg protein | 8.1 |  | 
CC(C)c1nc2c(n1C(=O)OCc1ccccc1)C(=O)C(=O)c1ccccc1-2 [Example 31] | 127.1 nmol cytochrome C reduced/min/μg protein | 5.1 |  | 
CC(C)c1nc2c(n1Cc1ccccc1)C(=O)C(=O)c1ccccc1-2 [Example 32] | 124.2 nmol cytochrome C reduced/min/μg protein | 5.8 |  | 
CC(C)c1nc2c(n1Cc1cccc(Cl)c1)C(=O)C(=O)c1ccccc1-2 [Example 34] | 153.5 nmol cytochrome C reduced/min/μg protein | 4.9 |  | 
CCn1c(C(C)C)nc2c1C(=O)C(=O)c1ccccc1-2 [Example 36] | 164.6 nmol cytochrome C reduced/min/μg protein | 7.8 |  | 
CCOC(=O)n1c(C(C)C)nc2c1C(=O)C(=O)c1ccccc1-2 [Example 37] | 215.7 nmol cytochrome C reduced/min/μg protein | 10.3 |  | 
CCc1nc2c(n1C)-c1ccccc1C(=O)C2=O [Example 39, 2-ethyl-1-methyl-1H-naphtho[2,1-d]imidazole-4,5-dione] | 104.7 nmol cytochrome C reduced/min/μg protein | 8.4 |  | 
CCc1nc2c(n1CC(F)(F)F)C(=O)C(=O)c1ccccc1-2 [Example 40, 2-ethyl-3-(2,2,2-trifluoroethyl)-3H-naphtho[2,1-d]imidazole-4,5-dione] | 192.9 nmol cytochrome C reduced/min/μg protein | 9.7 |  | 
CCc1nc2c(n1C)-c1ccc(F)cc1C(=O)C2=O [Example 42, 2-ethyl-7-fluoro-1-methyl-1H-naphtho[2,1-d]imidazole-4,5-dione] | 57.0 nmol cytochrome C reduced/min/μg protein | 8.9 |  | 
CCc1nc2c(n1C)C(=O)C(=O)c1cc(Cl)ccc1-2 [Example 43, 7-chloro-2-ethyl-3-methyl-3H-naphtho[2,1-d]imidazole-4,5-dione] | 111.6 nmol cytochrome C reduced/min/μg protein | 6.0 |  | 
CCc1nc2c(n1C)-c1ccc(Cl)cc1C(=O)C2=O [Example 44, 7-chloro-2-ethyl-1-methyl-1H-naphtho[2,1-d]imidazole-4,5-dione] | 43.4 nmol cytochrome C reduced/min/μg protein | 9.5 |  | 
CC(C)(C)c1nc2c(n1Cc1ccccc1)C(=O)C(=O)c1cccnc1-2 [Example 46, 3-benzyl-2-tert-butyl-3H-imidazo[4,5-h]quinoline-4,5-dione] | 160.1 nmol cytochrome C reduced/min/μg protein | 8.9 |  | 
